This note sets out measurements from US20160207930A1 (LEO PHARMA A/S, priority 2013, published 2016).

Series [1] is described as follows: Hepatic intrinsic clearance following incubation in human liver microsomes. The note with it: 0.5 μM test compound, NADPH, 0-30 min, scaled to g liver. It is filed as in vitro ADME. How it is done: Hepatic Extraction Ratio from Hepatic Intrinsic Clearance Following Incubation in Human Liver Microsomes
The general procedure consists of an automated incubation system and LC-MS/MS analysis with human liver microsomes. Human liver microsomes are thawed rapidly in a waterbath at 37° C. and kept on ice until use. The human liver microsomes are diluted with 50 mM potassium phosphate buffer pH 7.4 to a protein concentration of 0.55 mg/mL. Test compounds and positive controls (Verapamil and Dextromethorphan, positive controls for CYP3A4 for CYP2D6 isoforms, respectively) are dissolved in methanol (or other appropriate solvent, if necessary) in order to obtain a 5 mM solution which is further diluted to the concentration of 50 μM. The stock solutions are prepared immediately before the test.
5 μL of 50 μM test compounds and controls are added to 445 μL-of the 0.55 mg/mL microsomes solution and the incubation mixture are pre-warmed at 37° C. for 5 minutes. The incubation reactions are initiated by adding 50 μL of pre-warmed NADPH regenerating system to the incubation mixtures. 50 μL-aliquots will be taken from the incubation mixtures at: 0, 3, 6, 9, 15 and 30 minutes and the reactions are stopped by adding 100 μL of ACN containing Rolipram, used as generic Internal Standard (IS). Samples are then diluted with 120 μL of Milli-Q water and centrifuged at 3000 rpm for 10 minutes, prior the LC-MS/MS analysis.
The integrated peak areas for test compounds at the selected time points are divided by the respective peak areas of the IS and the percent of parent remaining is calculated by normalizing the peak area ratio of parent to IS at 0 min. Observed rate constant (kobs) for parent degradation is calculated by determining the slope of the line of the graph of the natural log of percentage parent remaining versus time of incubation. From the rate of depletion (min−1) and volume of the incubation (mL), clearance is estimated. This is scaled for the protein in the incubation relative to that in the intact liver, for all species (mL/min/g liver).
Values for the Human in vitro Clint are expressed as mL/min/g liver.
Assuming a liver weight of 25.7 g/kg and a liver blood flow of 20.7 mL/min/kg, the hepatic extraction ratio, Eh, can be derived from the Human in vitro Clint:
E.g. a Human in vitro Clint of 2.4 mL/min/g liver corresponds to a hepatic extraction ratio of 75%.
Some compounds of the present invention were tested according to example 101.
A general note: Liver microsomes are a subcellular fraction often used to study metabolism.

For the next series, the target named is T1, NK1 Receptor (Homo sapiens, UniProt P25103).
T1 construct: Measurement of NK1 Receptor Mediated Intracellular [Ca^2+]; Mobilization in U251 MG Cells Using FLIPR; endogenous in cells; host or cells: U251 MG cells
T1 sequence (P25103 whole entry): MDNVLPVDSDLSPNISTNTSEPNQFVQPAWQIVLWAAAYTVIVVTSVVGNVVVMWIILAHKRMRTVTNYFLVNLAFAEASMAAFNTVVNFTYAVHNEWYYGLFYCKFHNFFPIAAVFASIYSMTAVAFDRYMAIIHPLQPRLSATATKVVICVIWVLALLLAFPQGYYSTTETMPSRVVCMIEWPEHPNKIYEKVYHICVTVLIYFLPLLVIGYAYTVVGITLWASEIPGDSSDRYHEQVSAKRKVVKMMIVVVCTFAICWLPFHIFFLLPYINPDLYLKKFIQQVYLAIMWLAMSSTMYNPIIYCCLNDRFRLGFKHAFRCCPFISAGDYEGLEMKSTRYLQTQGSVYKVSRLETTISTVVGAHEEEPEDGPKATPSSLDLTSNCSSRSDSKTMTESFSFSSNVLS
Description: NK1 receptor mediated intracellular [Ca2+] mobilization in U251 MG cells using FLIPR. It is filed as cell-based. The note with it: antagonism of Substance P (EC80), Fluo-4, read-out: NK1R mediated intracellular [Ca^2+] mobilization IC 50. How it is done: Measurement of NK1 Receptor Mediated Intracellular [Ca^2+] Mobilization in U251 MG Cells Using FLIPR
U251 MG cells were seeded into black walled clear-bottom 384-well plates (Greiner Bio-One GmbH, Frickenhausen, Germany) at a density of 15,000 cells/well in 50 μl culture medium and cultured overnight in a 37° C. 5% CO2 incubator. The cells were then loaded with the calcium sensitive dye Fluo-4 (Invitrogen) at 1 μM in buffer, containing 0.04% Pluronic F-127 (Sigma-Aldrich), and 2.5 mM probenecid (Sigma-Aldrich) for 60 min in a humidified atmosphere of 5% CO2. Thereafter, cells were washed three times in washing buffer containing 20 mM HEPES and 2.5 mM probenecid pH 7.3. Serial dilutions of test compounds in assay buffer containing 2% dimethyl sulfoxide (final concentration in the cell plate is 0.5% DMSO) and/or agonist were then automatically pipetted into each test well, and the peak fluorescence intensity was recorded (lex, 488 nm; lem, 540 nm) by the FLIPR instrument (Molecular Devices) for approximately 5 min. To measure antagonist potency, cell plates were first incubated with the test compound and intracellular fluorescence recorded for 5 minutes to check a potential agonist effect of the test compound. Cell plates were quickly removed from the FLIPR instrument and incubated for additional 10 minutes at 37° C. before being moved back to the FLIPR instrument for Substance P (EC80) addition. The response was measured as the peak relative fluorescence change after agonist addition.
Compound relative %-effect was normalized to the maximal response evoked by 100 nM Aprepitant in presence of the EC80 of Substance P and the antagonist potency determined by non-linear regression using GraphPad Prism (version 5) or the four-parameter logistic model in XLfit (IDBS, Guilford, UK) for Microsoft Excel (Microsoft, Redmond, Wash.). The IC50 value is defined as the molar concentration of a test compound that produces a response midway between the fitted top and the fitted bottom. pIC50=−log IC50
Formula is listed as follows:
Fit (% Effect calculated)=(A+((B−A)/(1+((C/X)̂D)))) • A: bottom value • B: top value • C: test compound concentration • X: Relative IC50 • D: Hill slope coefficient
Ref: Sullivan E, Tucker E M, and Dale I L. Measurement of [Ca^2+] using the Fluorometric Imaging Plate Reader (FLIPR). Methods Mol Biol 114:125-133, 1999.
Compounds of the present invention were tested according to example 100.

Where only a bound is given, the exact number is not on record here.

Regarding `COc1ccc([C@H]2[C@@H]3CC(CCO)(CCO)C(=O)N3CCN2C(=O)N(C)[C@H](C)c2cc(C(F)(F)F)cc(C(F)(F)F)c2)c(C)c1` [Compound 29, (1S,8aS)—N—((R)-1-(3,5-bis(trifluoromethyl)phenyl)ethyl)-7,7-bis(2-hydroxyethyl)-1-(4-methoxy-2-methylphenyl)-N-methyl-6-oxohexahydropyrrolo[1,2-a]pyrazine-2(1H)-carboxamide], in series [1], the “Human in vitro Clint” value is above 200 mL/min/g. Also, the IC50 at NK1 Receptor was 0.114 nM.

As to `Cc1cc(O)ccc1[C@H]1[C@@H]2CC(CCO)(CCO)C(=O)N2CCN1C(=O)N(C)[C@H](C)c1cc(C(F)(F)F)cc(C(F)(F)F)c1` [Compound 30, (1S,8aS)—N—((R)-1-(3,5-bis(trifluoromethyl)phenyl)ethyl)-1-(4-hydroxy-2-methylphenyl)-7,7-bis(2-hydroxyethyl)-N-methyl-6-oxo-hexahydropyrrolo[1,2-a]pyrazine-2(1H)-carboxamide], the “Human in vitro Clint” value in series [1] worked out at 18 mL/min/g. Also, the IC50 at NK1 Receptor is 0.116 nM.

Take `CCc1cc([C@@H](C)N(C)C(=O)N2CCN3C(=O)C(CCO)(CCO)C[C@H]3[C@@H]2c2ccc(O)cc2C)cc(C(F)(F)F)c1` [Compound 31, (1S,8aS)—N—((R)-1-(3-ethyl-5-(trifluoromethyl)phenyl)ethyl)-1-(4-hydroxy-2-methylphenyl)-7,7-bis(2-hydroxyethyl)-N-methyl-6-oxohexahydropyrrolo[1,2-a]pyrazine-2(1H)-carboxamide]: in series [1], the “Human in vitro Clint” value was 61 mL/min/g. Besides, the IC50 at NK1 Receptor is 0.059 nM.

With `CCc1cc([C@@H](C)N(C)C(=O)N2CCN3C(=O)CC[C@H]3[C@@H]2c2ccccc2C)nc(C(F)(F)F)c1` [Compound 32, (1S,8aS)—N—((R)-1-(4-ethyl-6-(trifluoromethyl)pyridin-2-yl)ethyl)-N-methyl-6-oxo-1-o-tolylhexahydropyrrolo[1,2-a]pyrazine-2(1H)-carboxamide], the “Human in vitro Clint” value in series [1] was above 200 mL/min/g. Further, the IC50 at NK1 Receptor was found to be 0.66 nM.

Consider `Cc1cc(CN(C)C(=O)N2CCN3C(=O)C(CCO)(CCO)C[C@H]3[C@@H]2c2ccccc2C)nc(C(F)(F)F)c1` [Compound 33, (1S,8aS)-7,7-bis(2-hydroxyethyl)-N-methyl-N-((4-methyl-6-(trifluoromethyl)pyridin-2-yl)methyl)-6-oxo-1-o-tolylhexahydropyrrolo[1,2-a]pyrazine-2(1H)-carboxamide], for which the “Human in vitro Clint” value in series [1] was above 200 mL/min/g. The IC50 at NK1 Receptor worked out at 0.139 nM.

`Cc1ccc([C@H]2[C@@H]3CC(CCO)(CCO)C(=O)N3CCN2C(=O)N(C)[C@H](C)c2cc(Cl)cc(C(F)(F)F)c2)c(C)c1` [Compound 34, (1S,8aS)—N—((R)-1-(3-chloro-5-(trifluoromethyl)phenyl)ethyl)-1-(2,4-dimethylphenyl)-7,7-bis(2-hydroxyethyl)-N-methyl-6-oxo-hexahydropyrrolo[1,2-a]pyrazine-2(1H)-carboxamide]: the “Human in vitro Clint” value in series [1] is above 200 mL/min/g. In addition, on NK1 Receptor, the IC50 worked out at 0.054 nM.

Turning to `Cc1ccc([C@H]2[C@@H]3CC(CCO)(CCO)C(=O)N3CCN2C(=O)N(C)[C@H](C)c2cc(C(C)C)cc(C(F)(F)F)c2)c(C)c1` [Compound 35, (1S,8aS)-1-(2,4-dimethylphenyl)-7,7-bis(2-hydroxyethyl)-N—((R)-1-(3-isopropyl-5-(trifluoromethyl)phenyl)ethyl)-N-methyl-6-oxohexahydropyrrolo[1,2-a]pyrazine-2(1H)-carboxamide], in series [1], the “Human in vitro Clint” value was above 200 mL/min/g. The IC50 on NK1 Receptor was 0.141 nM.

`COc1ccccc1[C@H]1[C@@H]2CC(CCO)(CCO)C(=O)N2CCN1C(=O)N(C)[C@H](C)c1cc(C(F)(F)F)cc(C(F)(F)F)c1` [Compound 36, (1S,8aS)—N—((R)-1-(3,5-bis(trifluoromethyl)phenyl)ethyl)-7,7-bis(2-hydroxyethyl)-1-(2-methoxyphenyl)-N-methyl-6-oxo-hexahydropyrrolo[1,2-a]pyrazine-2(1H)-carboxamide]: the “Human in vitro Clint” value in series [1] is 147 mL/min/g. The IC50 at NK1 Receptor is 0.811 nM.

On to `Cc1ccc(C)c([C@H]2[C@@H]3CC(CCO)(CCO)C(=O)N3CCN2C(=O)N(C)[C@H](C)c2cc(C(F)(F)F)cc(C(F)(F)F)c2)c1` [Compound 37, (1S,8aS)—N—((R)-1-(3,5-bis(trifluoromethyl)phenyl)ethyl)-1-(2,5-dimethylphenyl)-7,7-bis(2-hydroxyethyl)-N-methyl-6-oxo-hexahydropyrrolo[1,2-a]pyrazine-2(1H)-carboxamide], for which the “Human in vitro Clint” value in series [1] was 30 mL/min/g. For the same compound, the IC50 at NK1 Receptor was determined as 0.08 nM.

Turning to `Cc1ccc(C)c([C@H]2[C@@H]3CC(CCO)(CCO)C(=O)N3CCN2C(=O)N(C)[C@H](C)c2cc(C(C)C)cc(C(F)(F)F)c2)c1` [Compound 38, (1S,8aS)-1-(2,5-dimethylphenyl)-7,7-bis(2-hydroxyethyl)-N—((R)-1-(3-isopropyl-5-(trifluoromethyl)phenyl)ethyl)-N-methyl-6-oxohexahydropyrrolo[1,2-a]pyrazine-2(1H)-carboxamide], in series [1], the “Human in vitro Clint” value came to 157 mL/min/g. For the same compound, the IC50 on NK1 Receptor amounted to 0.118 nM.

Regarding `Cc1cccc([C@H]2[C@@H]3CC(CCO)(CCO)C(=O)N3CCN2C(=O)N(C)[C@H](C)c2cc(C(F)(F)F)cc(C(F)(F)F)c2)c1C` [Compound 39, (1S,8aS)—N—((R)-1-(3,5-bis(trifluoromethyl)phenyl)ethyl)-1-(2,3-dimethylphenyl)-7,7-bis(2-hydroxyethyl)-N-methyl-6-oxohexahydropyrrolo[1,2-a]pyrazine-2(1H)-carboxamide], the “Human in vitro Clint” value in series [1] was above 200 mL/min/g. Further, the IC50 on NK1 Receptor worked out at 0.119 nM.

Regarding `Cc1cccc([C@H]2[C@@H]3CCC(=O)N3CCN2C(=O)N(C)[C@H](C)c2cc(C(F)(F)F)cc(C(F)(F)F)c2)c1C` [Compound 40, (1S,8aS)—N—((R)-1-(3,5-bis(trifluoromethyl)phenyl)ethyl)-1-(2,3-dimethylphenyl)-N-methyl-6-oxo-hexahydropyrrolo[1,2-a]pyrazine-2(1H)-carboxamide], the “Human in vitro Clint” value in series [1] was above 200 mL/min/g. For the same compound, at NK1 Receptor, the IC50 was determined as 0.197 nM.

As to `CCc1cc([C@@H](C)N(C)C(=O)N2CCN3C(=O)CC[C@H]3[C@@H]2c2cccc(C)c2C)cc(C(F)(F)F)c1` [Compound 41, (1S,8aS)-1-(2,3-dimethylphenyl)-N—((R)-1-(3-ethyl-5-(trifluoromethyl)phenyl)ethyl)-N-methyl-6-oxo-hexahydropyrrolo[1,2-a]pyrazine-2(1H)-carboxamide], the “Human in vitro Clint” value in series [1] is above 200 mL/min/g. The IC50 on NK1 Receptor turned out to be 0.111 nM.

On to `Cc1cccc([C@H]2[C@@H]3CCC(=O)N3CCN2C(=O)N(C)[C@H](C)c2cc(C(C)C)cc(C(F)(F)F)c2)c1C` [Compound 42], for which the “Human in vitro Clint” value in series [1] was above 200 mL/min/g. Further, the IC50 on NK1 Receptor was determined as 0.306 nM.
